The text below walks through data of patent US20240287047A1, “PESTICIDALLY ACTIVE DIAZINE-AMIDE COMPOUNDS” (SYNGENTA CROP PROTECTION AG, priority 2021, published 2024).

Type in all cases: in vivo
Assay [1] concerns Diabrotica balteata. The assay can be described thus: Example B2: Diabrotica balteata (corn root worm), maize sprouts, L2 larvae. As to conditions: for percent control (mortality or growth inhibition) at 200 ppm: Diabrotica balteata, 96 h, application rate of 200 ppm, 4 days after infestation, read-out: control in at least one of the two categories (mortality or growth inhibition); for mortality at 50 ppm: Concentration 50 ppm, Diabrotica balteata (Example B32). The protocol:
Maize sprouts placed onto an agar layer in 24-well microtiter plates were treated with aqueous test solutions prepared from 10,000 ppm DMSO stock solutions by spraying. After drying, the plates were infested with L2 larvae (6 to 10 per well). The samples were assessed for mortality and growth inhibition in comparison to untreated samples 4 days after infestation.

Assay [2] deals with Plutella xylostella. The assay can be described thus: Example B4: Plutella xylostella (diamond back moth), artificial diet, eggs. The conditions noted are these: for percent control (mortality or growth inhibition) at 200 ppm: Plutella xylostella, 192 h, application rate of 200 ppm, 8 days after infestation, read-out: control in at least one of the two categories (mortality or growth inhibition); for mortality at 50 ppm: Concentration 50 ppm, Plutella xylostella (Example B4). On the procedure:
24-well microtiter plates with artificial diet were treated with aqueous test solutions prepared from 10′000 ppm DMSO stock solutions by pipetting. After drying, Plutella eggs were pipetted through a plastic stencil onto a gel blotting paper and the plate was closed with it. The samples were assessed for mortality and growth inhibition in comparison to untreated samples 8 days after infestation.

Assay [3] has as its system Spodoptera littoralis. Kind of assay: Example B5: Spodoptera littoralis (Egyptian cotton leaf worm), cotton leaf discs, L1 larvae. The conditions noted are these: foliar, 72 h, application rate of 200 ppm, 3 days after infestation, read-out: control in at least one of the three categories (mortality, anti-feedant effect, or growth inhibition). On the procedure:
Cotton leaf discs were placed onto agar in 24-well microtiter plates and sprayed with aqueous test solutions prepared from 10,000 ppm DMSO stock solutions. After drying the leaf discs were infested with five L1 larvae. The samples were assessed for mortality, anti-feeding effect, and growth inhibition in comparison to untreated samples 3 days after infestation. Control of Spodoptera littoralis by a test sample is given when at least one of the categories mortality, anti-feedant effect, and growth inhibition is higher than the untreated sample.

SMILES strings stand for the structures.

With `CC(NC(=O)c1cc(Cl)cc(SC(F)(F)F)c1)c1nccnc1-c1cnccn1` (stereo not drawn) [Compound P28, 3-chloro-N-[1-(3-pyrazin-2-ylpyrazin-2-yl)ethyl]-5-(trifluoromethylsulfanyl)benzamide], the percent control (mortality or growth inhibition) at 200 ppm in assay [1] and in assay [2] was no less than 80% each time. In assay [3], the percent control (mortality, anti-feedant effect or growth inhibition) at 200 ppm was no less than 80%.
For `CC(NC(=O)c1cc(Br)cc(Br)c1)c1nccnc1-c1cnc(Cl)cn1` (stereo not drawn) [Compound P36, 3,5-dibromo-N-[1-[3-(5-chloropyrazin-2-yl)pyrazin-2-yl]ethyl]benzamide], the percent control (mortality or growth inhibition) at 200 ppm in assay [1] and in assay [2] was no less than 80% in each case. Further, in assay [3], the percent control (mortality, anti-feedant effect or growth inhibition) at 200 ppm was no less than 80%.
As to `C[C@@H](c1nccnc1-c1cnccn1)N(C)C(=O)c1cc(I)cc(C(F)(F)F)c1` [Compound E9, 3-iodo-N-methyl-N-[(1S)-1-(3-pyrazin-2-ylpyrazin-2-yl)ethyl]-5-(trifluoromethyl)benzamide], the percent control (mortality or growth inhibition) at 200 ppm in assay [1] is no less than 80%. Also, in assay [3], the percent control (mortality, anti-feedant effect or growth inhibition) at 200 ppm was no less than 80%.
For the molecule `CC(NC(=O)c1cc(C2CC2)cc(C(F)(F)F)c1)c1nccnc1-c1ccccn1` (stereo not drawn) [P33 of WO 2020/201398, reference compound], the mortality (as a rule, the share of the test organisms that died) at 50 ppm in assay [2] was 50%.
With `C[C@H](NC(=O)c1cc(Br)cc(Br)c1)c1nccnc1-c1cnccn1` [Compound E6, 3,5-dibromo-N-[(1S)-1-(3-pyrazin-2-ylpyrazin-2-yl)ethyl]benzamide], the percent control (mortality or growth inhibition) at 200 ppm in assay [1] and in assay [2] was no less than 80% in each case. The percent control (mortality, anti-feedant effect or growth inhibition) at 200 ppm in assay [3] is no less than 80%.
Regarding `C[C@@H](c1nccnc1-c1cnccn1)N(C)C(=O)c1cc(I)cc(I)c1` [Compound E10, 3,5-diiodo-N-methyl-N-[(1S)-1-(3-pyrazin-2-ylpyrazin-2-yl)ethyl]benzamide], the percent control (mortality or growth inhibition) at 200 ppm in assay [1] was no less than 80%. Besides, the percent control (mortality, anti-feedant effect or growth inhibition) at 200 ppm in assay [3] was no less than 80%.
Regarding `C[C@H](NC(=O)c1cc(I)cc(I)c1)c1nccnc1-c1cnccn1` [Compound E5, 3,5-diiodo-N-[(1S)-1-(3-pyrazin-2-ylpyrazin-2-yl)ethyl]benzamide], the percent control (mortality or growth inhibition) at 200 ppm in assay [1] and in assay [2] was no less than 80% each time. Moreover, the percent control (mortality, anti-feedant effect or growth inhibition) at 200 ppm in assay [3] is no less than 80%.
As for `CC(NC(=O)c1cc(C(F)F)cc(C(F)(F)F)c1)c1nccnc1-c1ncccn1` (stereo not drawn) [P22 of WO 2020/070049, reference compound], the mortality at 50 ppm in assay [1] is 80%.
As to `CC(NC(=O)c1cc(Cl)cc(C(F)(F)F)c1)c1nccnc1-c1ccccn1` (stereo not drawn) [Example 1 of WO 2021/068179, reference compound], the mortality at 50 ppm in assay [2] stood at 0%.
As to `CC(NC(=O)c1cc(C(F)(F)F)cc(C2(C#N)CC2)c1)c1nccnc1-c1ncccn1` (stereo not drawn) [P25 of WO 2020/201398, reference compound], the mortality at 50 ppm in assay [1] was found to be 50%.
For the molecule `CC(NC(=O)c1cc(Br)cc(Br)c1)c1nccnc1-c1cnccn1` (stereo not drawn) [Compound P15, 3,5-dibromo-N-[1-(3-pyrazin-2-ylpyrazin-2-yl)ethyl]benzamide], the percent control (mortality or growth inhibition) at 200 ppm in assay [1] and in assay [2] was no less than 80% in each case.
Consider `C[C@@H](c1nccnc1-c1cnccn1)N(C)C(=O)c1cc(C(F)F)cc(C(F)(F)F)c1` [Compound E13, 3-(difluoromethyl)-N-methyl-N-[(1S)-1-(3-pyrazin-2-ylpyrazin-2-yl)ethyl]-5-(trifluoromethyl)benzamide], for which, in assay [1], the percent control (mortality or growth inhibition) at 200 ppm was no less than 80%. Further, in assay [3], the percent control (mortality, anti-feedant effect or growth inhibition) at 200 ppm was no less than 80%.
